Legend:
[1] = test system: chickweed; assay: Test E chickweed; assay type: in vivo, Stellaria media; conditions: Postemergence
Description: (§1) Compounds evaluated in this test were formulated in a non-phytotoxic solvent mixture which included a surfactant and applied to plants that were in the 1- to 4-leaf stage (postemergence application). A mixture of sandy loam soil and greenhouse potting mix in a 60:40 ratio was used for the postemergence test.
(§2) Plantings of these crops and weed species were adjusted to produce plants of appropriate size for the postemergence test. All plant species were grown using normal greenhouse practices. Crop and weed species include annual bluegrass (Poa annua), blackgrass (Alopecurus myosuroides), black nightshade (Solanum nigra), chickweed (Stellaria media), common poppy (Papaver rhoeas), deadnettle (Lamium amplexicaule), downy brome (Bromus tectorum), field violet (Viola arvensis), galium (Galium aparine), green foxtail (Setaria viridis), Italian ryegrass (Lolium multiflorum), jointed goatgrass (Aegilops cylindrica), kochia (Kochia scoparia), lambsquarters (Chenopodium album), littleseed canarygrass (Phalaris minor), rape (Brassica napus), redroot pigweed (Amaranthus retroflexus), Russian thistle (Salsola kali), scentless chamomile (Matricaria inodora), spring barley (Hordeum vulgare), sugar beet (Beta vulgaris), sunflower (Helianthus annuus), ivyleaf speedwell (Veronica hederaefolia), spring wheat (Triticum aestivum), winter wheat (Triticum aestivum), wild buckwheat (Polygonum convolvulus), wild mustard (Sinapis arvensis), wild oat (Avena fatua), windgrass (Apera spica-venti) and winter barley (Hordeum vulgare).
(§3) Treated plants and untreated controls were maintained in a greenhouse for approximately 21 to 28 days, after which all treated plants were compared to untreated controls and visually evaluated. […] A dash response (-) means no test result.

[2] = test system: downy brome; assay: Test E downy brome; assay type: in vivo, Bromus tectorum; conditions: Preemergence
[3] = test system: wild mustard; assay: Test E wild mustard; assay type: in vivo, Sinapis arvensis; conditions: Preemergence
[4] = test system: Russian thistle; assay: Test E Russian thistle; assay type: in vivo, Salsola kali; conditions: Postemergence
Outline: (§4)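 Compound formulated with surfactant in a non-phytotoxic solvent (postemergence: young 1- to 4-leaf plants); held in greenhouse approx. 21–28 days; visual assessment against untreated plants.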

[5] = test system: kochia; assay: Test E kochia; assay type: in vivo, Kochia scoparia; conditions: Postemergence
Outline: as §4

[6] = test system: annual bluegrass; assay: Test E annual bluegrass; assay type: in vivo, Poa annua; conditions: Postemergence
Description: as §1, §2, §3

[7] = test system: sunflower; assay: Test E sunflower; assay type: in vivo, Helianthus annuus; conditions: Postemergence
Outline: as §4

[8] = test system: lambsquarters; assay: Test E lambsquarters; assay type: in vivo, Chenopodium album; conditions: Postemergence
Description: as §1, §2, §3

[9] = test system: lambsquarters; assay: Test E lambsquarters; assay type: in vivo, Chenopodium album; conditions: Preemergence
[10] = test system: downy brome; assay: Test E downy brome; assay type: in vivo, Bromus tectorum; conditions: Postemergence; for Plant response rating, Downy brome: 0 to 100 scale
Description: as §1, §2, §3

[11] = test system: wild oat; assay: Test E wild oat; assay type: in vivo, Avena fatua; conditions: Postemergence
Outline: as §4

[12] = test system: kochia; assay: Test E kochia; assay type: in vivo, Kochia scoparia; conditions: Preemergence
[13] = test system: field violet; assay: Test E field violet; assay type: in vivo, Viola arvensis; conditions: Postemergence
Outline: as §4

[14] = test system: galium; assay: Test E galium; assay type: in vivo, Galium aparine; conditions: Postemergence
Outline: as §4

[15] = test system: scentless chamomile; assay: Test E scentless chamomile; assay type: in vivo, Matricaria inodora; conditions: Preemergence
[16] = Rate 250 g/ha, 0 to 100 scale (0 no effect, 100 complete control)
[17] = Rate 500 g/ha, 0 to 100 scale, 0 no effect, 100 complete control
[18] = Rate 125 g/ha, 0 to 100 scale (0 no effect, 100 complete control)
[19] = Rate 500 g/ha, 0 to 100 scale where 0 is no effect and 100 is complete control

CC(C)N(C(=O)n1oc(=O)n(C(C)C)c1=O)c1ccc(F)cc1F [Compound 109]
Plant response rating, Chickweed ([1]; Rate 125 g/ha, 0 to 100 scale): 0
Plant response rating, Chickweed [1, 16]: 0
Plant response rating, Chickweed [1, 17]: 10
Plant response rating, Downy brome [2, 18]: 0
Plant response rating, Downy brome ([2]; Rate 250 g/ha, 0 to 100 scale): 80
Plant response rating, Downy brome [2, 19]: 60
Plant response rating, Wild mustard [3, 18]: 30
Plant response rating, Wild mustard ([3]; Rate 250 g/ha, 0 to 100 scale): 85
Plant response rating, Wild mustard [3, 19]: 80
Plant response rating, Russian thistle ([4]; Rate 125 g/ha, 0 to 100 scale): 0
Plant response rating, Russian thistle [4, 16]: 0
Plant response rating, Russian thistle [4, 17]: 0
Plant response rating, Kochia ([5]; Rate 125 g/ha, 0 to 100 scale): 30
Plant response rating, Kochia [5, 16]: 30
Plant response rating, Kochia [5, 17]: 50
Plant response rating, Annual bluegras ([6]; Rate 125 g/ha, 0 to 100 scale): 10
Plant response rating, Annual bluegras [6, 16]: 10
Plant response rating, Annual bluegras [6, 17]: 50
Plant response rating, Sunflower ([7]; Rate 125 g/ha, 0 to 100 scale): 30
Plant response rating, Sunflower [7, 16]: 30
Plant response rating, Sunflower [7, 17]: 40
Plant response rating Lambsquarters ([8]; Rate 125 g/ha, 0 to 100 scale): 20
Plant response rating Lambsquarters [8, 16]: 30
Plant response rating Lambsquarters [8, 17]: 30
Plant response rating Lambsquarters [9, 18]: 60
Plant response rating Lambsquarters ([9]; Rate 250 g/ha, 0 to 100 scale): 100
Plant response rating Lambsquarters [9, 19]: 100
Plant response rating, Downy brome ([10]; Rate 125 g/ha): 0
Plant response rating, Downy brortie [10, 16]: 0
Plant response rating, Downy brome ([10]; Rate 500 g/ha, 0 no effect, 100 complete control): 0
Plant response rating, Wild oat ([11]; Rate 125 g/ha, 0 to 100 scale): 0
Plant response rating, Wild oat [11, 16]: 0
Plant response rating, Wild oat [11, 17]: 10
Plant response rating, Kochia [12, 18]: 0
Plant response rating, Kochia ([12]; Rate 250 g/ha, 0 to 100 scale): 50
Plant response rating, Kochia [12, 19]: 100
Plant response rating, Field violet ([13]; Rate 125 g/ha, 0 to 100 scale): 10
Plant response rating, Field violet [13, 16]: 20
Plant response rating, Field violet [13, 17]: 40
Plant response rating, Galium ([14]; Rate 125 g/ha, 0 to 100 scale): 50
Plant response rating, Galium [14, 16]: 30
Plant response rating, Galium [14, 17]: 50
Plant response rating, Scentless chamo [15, 18]: 0
Plant response rating, Scentless chamo ([15]; Rate 250 g/ha, 0 to 100 scale): 30
Plant response rating, Scentless chamo [15, 19]: 30

Reference: patent publication US6737383B1, “Herbicidal oxadiazolidines” (priority 1999, dated 2004)
